Assays:
[1] = tested on: U266; test: Orthotopic multiple myeloma study; conditions: mouse, in vivo
Method: The efficacy of compounds provided by the present disclosure was evaluated using an orthotopic luciferase human multiple myeloma model—U266. Human multiple myeloma cells were IV injected (1×10^6 cells) into NSG mice (female, 5-6 weeks-old, Jackson Labs). Treatment began when the BLI reached a log-phase growth, at about 12 to 14 days after injection. Nine mice were assigned to each arm of the study. The mice were dosed with vehicle (IP, once weekly for 3 weeks), bortezomid (BTZ, 0.8 mg/kg, IP twice weekly for 3 weeks), compound (5) (5 mg/kg, IV once weekly for 3 weeks), or compound (5) (10 mg/kg, IV once weekly for 3 weeks). The tumor volume was measured using bioluminescence imaging.

[2] = tested on: U266; test: cells; assay type: cell-based; conditions: Homo sapiens, U-266, read-out: IC50 (in vitro toxicity)
[3] = tested on: LLCPK cells conditionally expressing hLAT1
[4] = tested on: 799E; test: In vitro cytotoxicity, 799E; assay type: cell-based; conditions: read-out: IC50 (in vitro toxicity)
[5] = tested on: 42MGBA; test: cells; assay type: cell-based; conditions: read-out: IC50 (in vitro toxicity)
[6] = tested on: L363; test: cells; assay type: cell-based; conditions: Homo sapiens, L-363, read-out: IC50 (in vitro toxicity)
[7] = tested on: AMO1; test: cells; assay type: cell-based; conditions: Homo sapiens, AMO1, read-out: IC50 (in vitro toxicity)
[8] = tested on: MV411; test: cells; assay type: cell-based; conditions: Homo sapiens, MV4-11, read-out: IC50 (in vitro toxicity)
[9] = tested on: PC3; test: cells; assay type: cell-based; conditions: Homo sapiens, PC-3, read-out: IC50 (in vitro toxicity)
[10] = tested on: mouse melanoma cells; test: Mouse melanoma efficacy in syngeneic mice
[11] = tested on: LLCPK cells conditionally expressing hLAT1; test: cells; conditions: 0.5 h, read-out: LC50, concentration of test compound at which the percent surviving cells was 50%
[12] = tested on: human bone marrow cells (erythroid and myeloid progenitors); test: In vitro bone marrow toxicity, colony forming cell assays; conditions: 14 days in culture, methylcellulose media
[13] = tested on: PC3; test: Prostate cancer xenograft study, IP dosing; assay type: in vivo, mouse
Method: The efficacy of compounds provided by the present disclosure was evaluated on a prostate cancer xenograft model—PC3. PC3 tumors were implanted into mice and the study was initiated after the volume of the tumors was 130 mm^3. The animals were IP dosed once a week or 3 times per week for 3 weeks with either vehicle or 1.25 mg/kg, 2.5 mg/kg, or 5 mg/kg of compound (5). The tumor volume, body weight, white blood cell count, and granulocyte count were determined during the study and 10 days after the final dose was administered.

[14] = tested on: Raji; test: cells; assay type: cell-based; conditions: Homo sapiens, read-out: IC50 (in vitro toxicity)
[15] = tested on: D283; test: cells; assay type: cell-based; conditions: D283, read-out: IC50 (in vitro toxicity)
[16] = tested on: RPMI8266; test: cells; assay type: cell-based; conditions: RPMI8266, read-out: IC50 (in vitro toxicity)
[17] = tested on: 1334; test: In vitro cytotoxicity, 1334; assay type: cell-based; conditions: read-out: IC50 (in vitro toxicity)

Structure (SMILES): Cc1ccc(N(CCCl)CCCl)cc1C[C@H](N)CC(=O)O [Compound 5, (3S)-3-Amino-4-[5-[bis(2-chloroethyl)amino]-2-methyl-phenyl]butanoic Acid]
- multiple myeloma tumor growth (bioluminescence imaging) [1]: dose-dependent suppression of multiple myeloma tumor growth
- IC50 [2]: < 100 µM
- IC50, S isomer compared with R isomer [3]: significantly less than the IC50 of the R isomer
- IC50 [4]: < 100 µM
- IC50 [5]: < 100 µM
- IC50 [6]: > 100 µM
- IC50 [7]: > 100 µM
- IC50 [8]: < 100 µM
- IC50 [9]: < 100 µM
- tumor growth after end of dosing ([10]; after dosing ended at 12 days): Tumors began to grow
- tumor growth ([10]; dosed daily for 12 days): suppressed tumor growth
- white blood cell count ([10]; during treatment): remained within the normal range
- CC50 [11]: < 1 µM
- toxicity to bone marrow progenitor cells (BFU-E, CFU-GM, Total CFC) [12]: melphalan is more toxic to bone marrow progenitor cells than compound (5)
- tumor growth post-treatment ([13]; 1.25 mg/kg, 2.5 mg/kg, and 5 mg/kg regimens, IP): demonstrated a dose response
- growth of the tumors ([13]; 5 mg/kg dosing regimen, IP once a week or 3 times per week for 3 weeks): nearly completely suppressed
- animal body weights ([13]; all dosing regimens): remained the same increased
- white blood cell count and granulocyte count ([13]; during and following treatment, all dosing regimens): remained within normal range
- IC50 [14]: < 100 µM
- IC50 [15]: < 100 µM
- IC50 [16]: > 100 µM
- IC50 [17]: < 100 µM

Source: patent publication US10017459B2, “β-substituted β-amino acids and analogs as chemotherapeutic agents and uses thereof” (Quadriga Biosciences, Inc., priority 2015, dated 2018)
